# Source: patent publication US9199983B2, “3-aryl-6-aryl-[1,2,4]triazolo[4,3-α]pyridines as inhibitors of cell proliferation and the use thereof” (priority 2010, dated 2015)
# How the values were obtained:
# caspase-3 activation [1] = assay: Caspase-3 activation (apoptosis induction) in A549 cells; assay type: cell-based; conditions: Homo sapiens, A-549 cells, 24 h treatment, read-out: EC50 to induce caspase-3 activation, A-549
# Description: (§1) Identification of 3-(2-methoxyphenyl)-6-(4-methoxyphenyl)-[1,2,4]triazolo[4,3-a]pyridine and analogs as inducers of apoptosis in solid tumor cells
# (§2) Human breast cancer cell line T-47D and lung cancer cell line A549, growing in DMEM/F12+10% FBS media were seeded to a density of 20000 cells/well in 96-well cell culture plate and grew overnight (18-24 h) in CO2 cell culture incubator at 37° C. Next day the medium were removed by aspiration and […] fresh growth media was added to each well followed by […] of growth media containing 10× concentration of reference or testing compounds with 10% DMSO. Twenty four hours later, cell culture plates were centrifuged at 1000 g for 5 min and the supernatant was removed by emptying contents into a reservoir. Fifty μl of Lysis Buffer (10 mM Tris, pH7.5, 0.1M NaCl, 1 Mm EDTA, 0.01% Triton X-100) was added to each well and the plates were incubated with gentle agitation on an orbital shaker at 4° C. for 30 min. The plates were then centrifuged at 1000 g for 10 min at 4° C. and 20 μl of the supernatant was transferred from each well to a corresponding well in a black 384-well. Twenty μl of caspase-3 assay buffer (20 mM PIPES, pH7.4, 4 Mm EDTA and 0.2% CHAPS) containing 20 μM fluorogenic caspase-3 substrate ((Ac-DEVD)2-R110, AnaSpec Cat #60304-5) was added to each well. The samples were mixed by agitation and incubated at 37° C. for 3 h. The fluorescent intensity of each well was read on a fluorescent plate reader (Varioskan Flash, Thermo Fisher Scientific) with excitation wavelength at 496 nm and emission wavelength at 520 nm. The activity of compounds on caspase-3 activation was determined by plotting the relative fluorescent unit (RFU) against the testing concentrations of the compounds. The EC50 values were determined by fitting the above responding curves into Prism sigmoidal dose-response equation (GraphPad Software, Inc).
# [2] = system: liver cancer cell line HepG2; assay: MTT cancer cell cytotoxicity assay, HepG2; assay type: cell-based, human; conditions: Homo sapiens, HepG2 cells, 48-72 h
# How it was run: (§3)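 Seeding: HepG2 and A549 at 3000, SMMC7721 at 5000, B16F10 at 2000 cells/well, attached overnight. Compounds (10 μM to 1 nM, triplicate) were applied for 48-72 h at 37 °C, followed by 4 h MTT. A550 minus A660 was fitted for IC50, with untreated wells as maximum and reference-drug total kill as background.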
# [3] = system: breast cancer cell line T47D; assay: MTT cancer cell cytotoxicity assay, T47D; assay type: cell-based, human; conditions: Homo sapiens, T47D cells, 48-72 h
# How it was run: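 Human T47D breast cancer cells, cultured per ATCC recommendations with 10% fetal bovine serum and penicillin/streptomycin, were plated at 3000 cells/well in 96-well plates. After overnight attachment they were exposed in triplicate to compounds (10 μM to 1 nM) for 48-72 h. MTT was then added for 4 h and the formazan dissolved in DMSO. Absorbance at 550 nm minus 660 nm was fitted in Prism 5 to give IC50.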
# caspase-3 activation [4] = assay: Caspase-3 activation (apoptosis induction) in T-47D cells; assay type: cell-based; conditions: Homo sapiens; T47D cells, 24 h treatment; read-out: EC50 to induce caspase-3 activation, T47D
# Description: as §1, §2
# [5] = system: liver cancer cell line SMMC7721; assay: MTT cancer cell cytotoxicity assay, SMMC7721; assay type: cell-based, human; conditions: Homo sapiens, SMMC-7721, SMMC7721 cells, 48-72 h
# How it was run: as §3
# [6] = system: Human lung cancer cell line A549; assay: MTT cancer cell cytotoxicity assay, A549; assay type: cell-based; conditions: Homo sapiens, A549 cells, 48-72 h
# How it was run: as §3
# [7] = system: mouse melanoma cell line B16F10; assay: MTT cancer cell cytotoxicity assay, B16F10; assay type: cell-based; conditions: Mus musculus, B16-F10, B16F10 cells, 48-72 h
# Description: Identification of 3-(2-methoxyphenyl)-6-(4-methoxyphenyl)-[1,2,4]triazolo[4,3-a]pyridine and analogs as inhibitors of cell proliferation that were evaluated with standard MTT cancer cell cytotoxicity assay (IC50)
# Human lung cancer cell line A549, breast cancer cell line T47D, liver cancer cell lines HepG2 and SMMC7721 as well as a mouse melanoma cell line B16F10 were used in the study. The cells were cultured in corresponding growth media recommended by American Type Culture Collection (ATCC) with the supplementation of penicillin G (100 U/ml)/streptomycin (100 µg/ml), and 10% fetal bovine serum (Hangzhou Sijiqing Biological Engineering Materials, Co., Ltd. China) at 37° C. in a humidified atmosphere containing 5% CO2. Cells at about 80% confluency were harvested by trypsinization. Cells were centrifuged, re-suspended in fresh growth media and counted. Corresponding numbers of cells were seeded to 96-well cell culture plates (HepG2 cell, T-47D and A549 cells at 3000 cells/well, SMMC-7721 cells at 5000 cells/well and B16F10 cells at 2000 cells/well) in a total volume of […]. Cells were incubated in CO2 incubator over night to allow the cells to attach. In next day, […] of medium containing testing (from 10 μM to 1 nM) or reference compounds was added to each well of the cells. Media without compound were used as 100% control. Cells were treated with each concentration of compounds in triplicates to ensure data accuracy. Cells were incubated with compounds in CO2 incubator for an additional 48-72 h at 37° C. After incubation, cells were removed from the CO2 incubator and […] of 5 mg/ml MTT (3-(4,5-dimethylthiazole-2-yl)-2,5-diphenyltetrazoliumbromide, Sigma) solution in PBS was added to each well. Cells were returned to CO2 incubator and incubated for additional 4 h. After the incubation, media were removed by aspiration and […] DMSO was added to each well. Plates were sealed with aluminum foil and shaked mildly on an orbital shaker for 10 min at room temperature. The absorption was measured at 550 nm with a plate reader (Varioskan Flash, Thermo Fisher Scientific) with 660 nm reading used as background control. The relative absorbance readings were calculated by subtracting readings at 660 nm from that at 550 nm. The relative absorbance was plotted again the concentrations of the testing compounds and the plots were fitted with a one-site lg(IC50) equation using Prism 5 software (GraphPad Software, Inc). The equation used in the curve fitting is as follows: relative absorbance reading=background reading+(maximal reading−brackground reading)/(1+10 ^(compound concentration-log IC50)). The background reading used in the calculation was obtained with 100% cell death using a reference anticancer drug, whereas the maximal reading was obtained in the well with no added compound. The IC50 value calculated from the equation represents the cytotoxic potency of a particular compound.
smiles,measurement,setting,value
"COc1ccc(-c2ccc3nnc(-c4ccccc4OC)n3c2)cc1 [Example 1, 3-(2-Methoxyphenyl)-6-(4-methoxyphenyl)-[1,2,4]triazolo[4,3-a]pyridine]",EC50,caspase-3 activation [1],0.083 µM
same,IC50,[2],0.028 µM
same,IC50,[3],0.037 µM
same,EC50,caspase-3 activation [4],0.055 µM
same,IC50,[5],0.013 µM
same,IC50,[6],0.035 µM
same,IC50,[7],0.036 µM
"COc1ccc(-c2ccc3nnc(-c4ccccc4OC)n3c2)cc1Cl [Example 26, 6-(3-Chloro-4-methoxyphenyl)-3-(2-methoxyphenyl)-[1,2,4]triazolo[4,3-a]pyridine]",EC50,caspase-3 activation [1],0.032 µM
same,IC50,[2],0.023 µM
same,IC50,[3],0.052 µM
same,EC50,caspase-3 activation [4],0.24 µM
same,IC50,[5],0.012 µM
same,IC50,[6],0.033 µM
same,IC50,[7],0.023 µM
"COc1ccc(-c2ccc3nnc(-c4ccc(C)cc4OC)n3c2)cc1 [Example 66, 3-(2-Methoxy-4-methylphenyl)-6-(4-methoxyphenyl)-[1,2,4]triazolo[4,3-a]pyridine]",EC50,caspase-3 activation [1],0.011 µM
same,IC50,[2],0.015 µM
same,IC50,[3],0.019 µM
same,EC50,caspase-3 activation [4],0.062 µM
same,IC50,[5],0.0037 µM
same,IC50,[6],0.012 µM
same,IC50,[7],0.0034 µM
"COc1ccc(-c2ccc3nnc(-c4ccccc4OC)n3c2)cc1C [Example 5, 6-(4-Methoxy-3-methylphenyl)-3-(2-methoxyphenyl)-[1,2,4]triazolo[4,3-a]pyridine]",EC50,caspase-3 activation [1],0.093 µM
same,IC50,[2],0.032 µM
same,IC50,[3],0.04 µM
same,EC50,caspase-3 activation [4],0.076 µM
same,IC50,[5],0.011 µM
same,IC50,[6],0.011 µM
same,IC50,[7],0.037 µM
"COc1ccc(-c2ccc3nnc(-c4ccccc4OC)n3c2)cc1F [Example 35, 6-(3-Fluoro-4-methoxyphenyl)-3-(2-methoxyphenyl)-[1,2,4]triazolo[4,3-a]pyridine]",EC50,caspase-3 activation [1],0.025 µM
same,IC50,[2],0.019 µM
same,IC50,[3],0.068 µM
same,EC50,caspase-3 activation [4],0.228 µM
same,IC50,[5],0.0099 µM
same,IC50,[6],0.02 µM
same,IC50,[7],0.016 µM
"COc1ccc(-c2ccc3nnc(-c4ccc(Cl)cc4OC)n3c2)cc1 [Example 57, 3-(4-Chloro-2-methoxyphenyl)-6-(4-methoxyphenyl)-[1,2,4]triazolo[4,3-a]pyridine]",EC50,caspase-3 activation [1],0.005 µM
same,IC50,[2],0.0034 µM
same,IC50,[3],0.0041 µM
same,EC50,caspase-3 activation [4],0.02 µM
same,IC50,[5],0.0067 µM
same,IC50,[6],0.0034 µM
same,IC50,[7],0.0016 µM
